Measurements published in patent publication US10633386B2, “BET protein degraders” (THE REGENTS OF THE UNIVERSITY OF MICHIGAN, priority 2016, dated 2020).

Legend:
TNBC cell lines [1] = assay: Combination growth inhibition with BCL-2/BCL-XL inhibitors (Bliss independence model); assay type: cell-based; settings: 6 of the 7 TNBC cell lines tested (data not shown)
Procedure: MCL1 and BCL-XL are important but independent determinants of cell survival in TNBC (Goodwin et al., Cell Death Differ 22:2098-106 (2015); Xiao et al., Mol. Cancer Ther. 14:1837-47 (2015); Petrocca et al., Cancer Cell 24:182-96 (2013)). A panel of TNBC cell lines were treated with Cpd. No. 4 in combination with BCL-2 and/or BCL-XL inhibitors, and the excess growth inhibition was computed over the Bliss independence model for each combination pairs (Berenbaum, Adv. Cancer Res., 35:269-335 (1981)). ABT-263 (Tse et al., Cancer Res. 68:3421-8 (2008)) and BM-1197 (Bai et al., PLoS One 2014; 9(6):e99404 doi 10.1371/journal.pone.0099404) were selected as dual BCL-2/BCL-XL inhibitors, […] as a selective BCL-XL inhibitor (Tao et al., ASC Med. Chem. Lett. 5:1088-93 (2014)) and ABT-199 as a selective BCL-2 inhibitor (Souers et al., Nat. Med. 19:202-8 (2013)).

TNBC cell lines [2] = assay: Combination apoptosis induction (immunoblotting and/or Annexin-PI staining); assay type: cell-based; settings: for effect on Cpd. No. 4-induced apoptosis: MDA-MB-468, 250 nM with Cpd. No. 4 50 nM (FIG. 14)
Procedure: Immunoblotting and/or Annexin-PI staining confirmed that BM-1197 (250 nM), ABT-263 (250 nM), and A-1155463 (250 nM) potentiated Cpd. No. 4-induced apoptosis (50 nM) in MDA-MB-468 (FIG. 14) and other TNBC cell lines (data not shown). Synergistic induction of apoptosis by Cpd. […] No. 4-induced apoptosis in these cell lines. […] A with either BM-1197 (FIGS. 15 and 16) or ABT-263 (data not shown). […] No. 4 and BM-1197 was also detected in additional TNBC cell lines responsive to Cpd. No. 4-induced apoptosis (BT-20 and MDA-MB-157) (data not shown), further supporting that BCL-XL inhibitors potentiate Cpd. No. 4-induced apoptosis in TNBC.

MOLM-13 = assay: Cell growth inhibition (CellTiter-Glo), MOLM-13; assay type: cell-based; settings: Homo sapiens, MOLM-13, 96 h, MOLM-13 cells, 4 days
Procedure: (§1) Cell growth inhibitory activity of representative BET bromodomain degraders was determined using CellTiter-Glo® Luminescent Cell Viability Assay. Cells were seeded in 384-well white opaque cell culture plates at a density of 2,000 cells/well with serially diluted compounds and incubated at 37° C. in an atmosphere of 95% air and 5% CO2 for 4 days. Cell viability was determined using the CellTiter-Glo® Luminescent Cell Viability Assay Kit (Promega, Madison, Wis.) according to the manufacture's instruction. Briefly, a volume of CellTiter-Glo® Reagent equal to the volume of cell culture medium was added to each well, and then the plates were incubated at room temperature for 10-20 minutes. The luminescent signal was measured using a Tecan Infinite M1000 multimode microplate reader (Tecan, Morrisville, N.C.). The half maximal inhibitory concentration (IC50) was calculated using the GraphPad Prism 5 software (GraphPad Software, La Jolla, Calif.).

MDA-MB-468 xenograft = assay: In vivo antitumor activity in MDA-MB-468 xenograft model; set-up: species or system SCID mice
Procedure: (§2) For the in vivo efficacy experiments of this example, when tumors reached 80-200 mm^3, SCID mice were randomized into groups. Cpd. A, Cpd. No. 4, Cpd. No. 6, or vehicle control (10% PEG400: 3% Cremophor: 87% PBS, or 2% TPGS:98% PEG200) was given at the dose and duration indicated. Tumor sizes and animal weights were measured 2-3 times per week. Tumor volume (mm^3)=(length×width^2)/2. Tumor growth inhibition was calculated as TGI (%)=(Vc−Vt)/(Vc−Vo)*100, where Vc, Vt are the median of control and treated groups at the end of the study and Vo at the start. All the in vivo studies were performed under an animal protocol approved by the University Committee on Use and Care of Animals of the University of Michigan, in accordance with the recommendations in the Guide for the Care and Use of Laboratory Animals of the National Institutes of Health.
(§3) No. 4 was determined in xenograft tumor models of TNBC cell lines.

MDA-MB-231 xenograft = assay: In vivo antitumor activity in MDA-MB-231 xenograft model (Example 25); set-up: species or system SCID mice
Procedure: as §2, §3

MDA-MB-231 = assay: Cell growth inhibition (CellTiter-Glo), MDA-MB-231; assay type: cell-based, human; settings: Homo sapiens, MDA-MB-231, 96 h, MDA-MB-231 cells, 4 days
Procedure: as §1

Cc1c(S(C)(=O)=O)c(-c2cc(F)cc(N3CCN(c4ccc(NS(=O)(=O)c5ccc(N[C@H](CCN6CCC(O)CC6)CSc6ccccc6)c(S(=O)(=O)C(F)(F)F)c5)cc4)CC3)c2)c(-c2ccc(Cl)cc2)n1C(C)C [BM-1197]
synergy with Cpd. No. 4 (excess growth inhibition over Bliss independence model) (TNBC cell lines [1]): Modest to strong synergy | apoptosis induction by the combination of Cpd. No. 4 and BM-1197 (TNBC cell lines [2]; BT-20 and MDA-MB-157 (data not shown)): synergistic apoptosis induction | effect on apoptosis induction by Cpd. No. 4 (TNBC cell lines [2]; MDA-MB-213 cells (FIG. 15)): enhances apoptosis induction by Cpd. No. 4 | effect on apoptosis induction by Cpd. No. 4 (TNBC cell lines [2]; MDA-MB-453 cells (FIG. 16)): enhances apoptosis induction by Cpd. No. 4 | effect on Cpd. No. 4-induced apoptosis (TNBC cell lines [2]): potentiated

CN(C)CC#Cc1ccc(OCCCc2sc(N3CCc4cccc(C(=O)Nc5nc6ccccc6s5)c4C3)nc2C(=O)O)c(F)c1 [A-1155463]
synergy with Cpd. No. 4 (excess growth inhibition over Bliss independence model) (TNBC cell lines [1]): Modest to strong synergy | effect on Cpd. No. 4-induced apoptosis (TNBC cell lines [2]): potentiated

CCn1nc(C2CC2)cc1Nc1nc(C(=O)NCCCCCc2cccc3c2CN(C2CCC(=O)NC2=O)C3=O)nc2[nH]c3cc(-c4c(C)noc4C)c(OC)cc3c12 (centres unmarked) [Cpd. No. 6]
IC50 (MOLM-13): < 0.8 nM | tumor growth (MDA-MB-468 xenograft; MDA-MB-468 xenograft model in mice (FIG. 11)): reduce tumor growth | antitumor activity relative to Cpd. A at 50 mg/kg, daily oral dosing, 5 days a week for 3 weeks (MDA-MB-468 xenograft; MDA-MB-468 xenograft model, 5 mg/kg, IV, 3 times per week for 3 weeks): comparable to or stronger than that of Cpd. A | antitumor activity (MDA-MB-468 xenograft; MDA-MB-468 xenograft model, 5 mg/kg, IV, 3 times per week for 3 weeks (FIG. 11)): exerted antitumor activity | tumor growth (MDA-MB-231 xenograft; MDA-MB-231 xenograft model in mice (FIG. 10)): reduce tumor growth | antitumor activity relative to Cpd. A at 50 mg/kg, daily oral dosing, 5 days a week for 3 weeks (MDA-MB-231 xenograft; MDA-MB-231 xenograft model, 5 mg/kg, IV, 3 times per week for 3 weeks): comparable to or stronger than that of Cpd. A | antitumor activity (MDA-MB-231 xenograft; MDA-MB-231 xenograft model, 5 mg/kg, IV, 3 times per week for 3 weeks (FIG. 10)): exerted antitumor activity | IC50 (MDA-MB-231): 1 nM

CC1(C)CCC(c2ccc(Cl)cc2)=C(CN2CCN(c3ccc(C(=O)NS(=O)(=O)c4ccc(N[C@H](CCN5CCOCC5)CSc5ccccc5)c(S(=O)(=O)C(F)(F)F)c4)cc3)CC2)C1 [ABT-263]
synergy with Cpd. No. 4 (excess growth inhibition over Bliss independence model) (TNBC cell lines [1]): Modest to strong synergy | effect on Cpd. No. 4-induced apoptosis (TNBC cell lines [2]): potentiated
